Measurements taken from patent publication US20090176888A1, “COMPOSITION COMPRISING PHYTOSPHINGOSINE OR DERIVATIVE THEREOF” (KOREA INSTITUTE OF RADIOLOGICAL & MEDICAL SCIENCES, priority 2003, published 2009).

Columns and labels:
human lung cancer cells [1] = test: Apoptosis test with or without radiation (4 Gy); format: cell-based; conditions: 20 μg/ml, FIG. 13
Method: (§1) (1) Each 5 ml of 20 μg/ml of phytosphingosine and derivatives thereof were added to human lung cancer cell-containing dishes. Some cells were cultured without radiation and others were cultured with radiation with dose of 4 Gy. This apoptosis test was carried out in the same manner in the Experiment 1. Specimens used in this apoptosis test are as follows:
(§2) Control (Cont), IR, PS, PS+IR, C4PS, C4PS+IR, C6PS, C6PS+IR, C8PS, C8PS+IR, C12PS, C12PS+IR.

human lung cancer cells [2] = test: DAPI staining (percentage of apoptotic cells); format: cell-based; conditions: 20 μg/ml C8PS with radiation
Method: (§3) Human lung cancer cells were cultured in the same manner as in Experiment 1 and injected with 5 ml of 20 μg/ml of C8PS. Then, the DAPI staining and DNA fragmentation were carried out.
DAPI staining protocol was as follows:
First, a control cell group, a radiation-treated cell group, a C8PS-treated cell group, and a C8PS and radiation concurrent treated cell group were fixed with 4% paraformaldehyde at room temperature for 30 minutes and washed with PBS. 50 ng/ml of a DAPI solution was added to the fixed cell groups and incubated for 30 minutes. Then, the cell groups were again washed with PBS and examined with a fluorescent microscope. Cellular apoptosis is characterized by condensation and fragmentation of cell nuclei. Based on this fact, apoptotic cells were counted in each group. Then, the number of apoptotic cells was divided by the number of total cells to derive the percentage of apoptotic cells in each group.

human lung cancer cells [3] = test: Colony formation test in combination with radiation; format: cell-based; conditions: for sensitizer enhancement ratio (SER): in combination with radiation
Method: (§4) Colony formation tests were carried out in human lung cancer cells, breast cancer cells, and uterine cervical cancer cells as follows:
(§5) Respective sphingosine, phytosphingosine, C6PS, and C8PS were dissolved ethanol to produce specimens. About 600 cells (for each cancer) were plated in a dish with a diameter of 60 mm and incubated in a CO2 incubator at 37° C. for a day. Then, the cancer cells were treated with the specimens in combination with radiation and were continuously cultured. When suitable colonies were formed, the cancer cells were fixed with a fixing solution (methanol/acetic acid=3:1) and stained with trypan blue. Then, the number of the colonies was counted and the results were evaluated in a comparative manner.

human lung cancer cells [4] = test: In vivo animal test, tumor volume with radiotherapy (20 Gy); design: species or system nude mice
Method: (§6) Nude mice (body weight: about 20 g) were randomized into 4 groups and the femoral region of the nude mice transplanted with human lung cancer cells. Then, tumor volume was allowed to reach a level of […]. One group had untreated cells as a control and a second group had radiation (dose of 20 Gy)-treated cells. A third group was orally administered with 50 mg/kg of an olive oil for one week on a daily basis, followed by radiotherapy (dose of 20 Gy). A fourth group was orally administered with a 50 mg/kg solution of phytosphingosine in an olive oil for one week on a daily basis, followed by radiotherapy (dose of 20 Gy). Tumor volume was measured at intervals of 3 days for 40 days. […] In case of a C8PS alone treated group, the tumor size increased until 10 days after the treatment. […] Meanwhile, tumor growth was suspended at a certain point of time after C8PS alone treatment. It can be seen from this fact that C8PS is useful by itself as an anticancer agent for inhibiting tumor growth.

human lung cancer cells [5] = test: DNA fragmentation (agarose gel electrophoresis); format: cell-based; conditions: 20 μg/ml C8PS with radiation, FIG. 20
Method: as §3
DNA fragmentation was carried out as follows:
C8PS-treated human lung cancer cells were dissolved in a lysis buffer (20 mM Tris/HCl, pH 8.0, 0.1 mM EDTA, 1% SDS and 0.5 mg/ml proteinase K) and treated with a mixture of phenol, chloroform, and isoamylalcohol (phenol/chloroform/isoamylalcohol=25:24:1) to thereby give a chromosomal DNA extract. The chromosomal DNA extract was subjected to 1% agarose gel electrophoresis and the resulting DNA fragments were visualized under an UV light.

[6] = test system: human breast cancer cells; test: Colony formation test in combination with radiation; format: cell-based; conditions: FIG. 18
Method: as §4, §5

[7] = test system: human uterine cervical cancer cells; test: as above; format: cell-based; conditions: FIG. 18
Method: as §4, §5

[8] = test system: human lung cancer cells (NCI-H460); test: Apoptosis test (Sub G1, propidium iodide, flow cytometry); format: cell-based; conditions: 5 μg/ml, culture time of 48 hours, FIG. 2
Method: Cancer cells as used in the experiment were human lung cancer cells (NCI-H460, Korean Cell Line Bank), human breast cancer cells (MDA-MB-231, American Type Culture Collection (ATCC)), human uterine cervical cancer cells (HeLa, Korean Cell Line Bank), and blood cancer cells (Jurkat, ATCC). These cancer cells were cultured in RPMI 1640 media containing 10% FBS, penicillin, and streptomycin (GIBCO BRL).
The apoptosis tests were carried out at human lung cancer cells, breast cancer cells, uterine cervical cancer cells, and blood cancer cells as follows:
Phytosphingosine or a derivative thereof was dissolved in DMSO. Samples of the resultant solution of different concentration levels (1, 2, 5, 10, 15, 20 μg/ml) were prepared. According to the following treatment schedule, phytosphingosine treated cancer cells were cultured, washed with PBS (phosphate buffered saline), and fixed with 70% ethanol. The fixed cells were again washed with PBS, suspended in PBS, and 1 mg/ml of RNase was added thereto. Then, DNA was stained with 50 μg/ml of propidium iodide fluorescent dye and the change in the Sub G1 was analyzed by flow cytometry (Becton DICKINSON). The Sub G1, a marker of apoptotic cell death, means DNA distribution lower than that in the G1 phase of cell cycle.
(1-1) In order to determine an anticancer effect of phytosphingosine, 5 ml of 10 μg/ml of phytosphingosine was added to respective dishes containing lung cancer cells, breast cancer cells, uterine cervical cancer cells, and blood cancer cells.
(1-2) In order to examine a correlation of an anticancer effect with the phytosphingosine concentration and post-treatment culture time, each 5 ml of 2, 5, 10, and 15 μg/ml of phytosphingosine was added to respective human uterine cervical cancer cell-containing dishes and human breast cancer cell-containing dishes. In addition, each 5 ml of 5, 10, 15, and 20 μg/ml of phytosphingosine was added to respective human lung cancer cell-containing dishes, and each 5 ml of 1, 5, 10, and 20 μg/ml of phytosphingosine was added to respective human blood cancer cell-containing dishes.
(1-3) An anticancer effect of phytosphingosine derivatives was determined in the same manner as mentioned in (1-1) and (1-2) except using 5 μg/ml of C4PS, C6PS, C8PS, and C12PS.

[9] = test system: human uterine cervical cancer cells; test: In vivo animal test, tumor size with radiotherapy; design: species or system nude mice; conditions: for tumor size, compound alone treated group: after 7 days (rapidly increased until 7 days after the treatment); for tumor size, radiation and compound concurrent treated group: as a function of days; for tumor size, concurrent treatment vs radiation or compound alone: with radiation, FIGS. 24 and 25
Method: as §6
The animal tests were carried out using nude mice of which the femoral regions were transplanted with human uterine cervical cancer cells in the same manner as the aforementioned animal test using C8PS.

[10] = test system: human breast cancer cells; test: Apoptosis test with or without radiation; format: cell-based; conditions: 5 μg/ml in combination with radiation, FIG. 17
Method: as §1, §2
(§7) (2) Apoptosis tests for human blood cancer cells, uterine cervical cancer cells, and breast cancer cells were carried out in the same manner as in the above (1) except using 5 μg/ml of phytosphingosine and derivatives thereof.

[11] = test system: human uterine cervical cancer cells; test: Apoptosis test with or without radiation; format: cell-based; conditions: 5 μg/ml in combination with radiation, FIG. 17
Method: as §1, §2, §7

| SMILES | apoptotic effect of concurrent application with radiation (human lung cancer cells [1]) | apoptotic rate, concurrent treatment vs radiation or C8PS alone (human lung cancer cells [2]; FIG. 19) | increase of apoptotic rate, concurrent treatment vs radiation or C8PS alone (human lung cancer cells [2]; as a function of time, FIG. 21) [%] | radiosensitivity (human lung cancer cells [3]; FIG. 12) | increase of radiosensitivity relative to Taxol (human lung cancer cells [3]; at LD50 of human lung cancer cells, FIG. 14B) [%] | sensitizer enhancement ratio (SER) (human lung cancer cells [3]; FIG. 12) | increase of apoptotic rate, concurrent treatment vs radiation alone (human lung cancer cells [3]; radiation at LD50 (number of colonies reduced to 50% by radiation alone), FIG. 14A) | tumor volume, concurrent treatment vs radiation or C8PS alone (human lung cancer cells [4]; 50 mg/kg oral daily for one week then radiotherapy 20 Gy, FIG. 22) | size of initial tumor, radiation and C8PS concurrent treated group (human lung cancer cells [4]; 50 mg/kg oral daily for one week then radiotherapy 20 Gy, FIG. 23) | tumor size, C8PS alone treated group (human lung cancer cells [4]; after the 10th day after treatment (increased until 10 days), FIG. 23) | chromosomal DNA fragmentation, concurrent treatment vs radiation or C8PS alone (human lung cancer cells [5]) | sensitizer enhancement ratio (SER) [6] | sensitizer enhancement ratio (SER) [7] | apoptotic rate [8] [%] | tumor size, compound alone treated group [9] | tumor size, radiation and compound concurrent treated group [9] | tumor size, concurrent treatment vs radiation or compound alone [9] | enhancement of radiosensitizing effect [10] | enhancement of radiosensitizing effect [11] |
| --- | --- | --- | --- | --- | --- | --- | --- | --- | --- | --- | --- | --- | --- | --- | --- | --- | --- | --- | --- |
| CCCCCCCCCCCCCC[C@@H](O)[C@@H](O)[C@H](CO)NC(=O)CCCCCCC [C8PS, N-octanoyl phytosphingosine] | excellent apoptotic effect | higher apoptotic rate | ≥ 20 | excellent radiosensitivity | ≥ 20 | 2 | about 30% | significantly reduced | maintained or reduced | showed little changed | remarkably increased | – | – | – | – | – | – | – | – |
| CCCCCCCCCCCCC/C=C/[C@@H](O)[C@@H](N)CO [sphingosine] | – | – | – | – | – | 1.10 | – | – | – | – | – | – | – | – | – | – | – | – | – |
| CCCCCCCCCCCCCC[C@@H](O)[C@@H](O)[C@H](CO)NC(=O)CCCCC [C6PS, N-hexanoyl phytosphingosine] | – | – | – | – | – | 1.6 | – | – | – | – | – | 2.40 | 2.67 | ~100 | slowly increased | showed little changes | significant reduction in tumor size | excellent | excellent |
| CCCCCCCCCCCCCC[C@@H](O)[C@@H](O)[C@H](CO)NC(=O)CCC [C4PS, N-butanoyl phytosphingosine] | – | – | – | – | – | – | – | – | – | – | – | – | – | ~100 | slowly increased | showed little changes | significant reduction in tumor size | excellent | excellent |
